Source: patent US4772551A (priority 1985, dated 1988)

Key:
[1] = target: T-2 reactive monoclonal antibody; type: binding, murine
[2] = test system: polyclonal antibodies produced to aflatoxin B1 and ochratoxin A; conditions: cited from earlier work

Compound | 50% Inhibition (concentration required to inhibit binding of antibody by 50%) [1] | Minimal Inhibition (concentration required for first significant inhibition of binding of antibody) [1] | cross reaction with T-2 monoclonal antibody [1] | reactivity relative to T-2 [1] | sensitivity [2]
CC(=O)OC[C@]12C[C@H](OC(=O)CC(C)(C)O)C(C)=C[C@H]1O[C@@H]1[C@H](O)[C@@H](O)[C@@]2(C)[C@]12CO2 [3'OH HT-2] | 0.100 µg/mL | 0.05 µg/mL |  |  | 
CC(=O)OC[C@]12C[C@H](OC(=O)CC(C)(C)O)C(C)=C[C@H]1O[C@@H]1[C@H](O)[C@@H](OC(C)=O)[C@@]2(C)[C@]12CO2 [3'OH T-2] | 0.018 µg/mL | 0.005 µg/mL |  |  | 
CC(=O)OC[C@]12C[C@H](OC(=O)CC(C)C)C(C)=C[C@H]1O[C@@H]1[C@H](OC(C)=O)[C@@H](OC(C)=O)[C@@]2(C)[C@]12CO2 [Acetyl T-2] | 0.094 µg/mL | 0.01 µg/mL | strong cross reaction |  | 
CC1=C[C@H]2O[C@@H]3[C@H](O)C[C@](C)([C@@]2(CO)[C@H](O)C1=O)[C@]31CO1 [Deoxynivalanol] | > 1000. ug/ml | > 1000. ug/ml |  |  | 
CC(=O)OC[C@]12C[C@H](OC(=O)CC(C)C)C(C)=C[C@H]1O[C@@H]1[C@H](O)[C@@H](O)[C@@]2(C)[C@]12CO2 [HT-2] | 1.0 µg/mL | 0.5 µg/mL | relatively weak cross-reaction | 2% | 
CC(=O)OC[C@]12C[C@H](O)C(C)=C[C@H]1O[C@@H]1[C@H](O)[C@@H](OC(C)=O)[C@@]2(C)[C@]12CO2 [Neosolaniol] | 1.6 µg/mL | 1.0 µg/mL |  |  | 
CC1=C[C@H]2O[C@@H]3[C@H](O)[C@@H](O)[C@](C)([C@@]2(CO)C[C@@H]1OC(=O)CC(C)C)[C@]31CO1 [T-2 triol] | 14.9 µg/mL | 5.0 µg/mL |  |  | 
CC(=O)OC[C@]12C[C@H](OC(=O)CC(C)C)C(C)=C[C@H]1O[C@@H]1[C@H](OC(=O)CCC(=O)O)[C@@H](OC(C)=O)[C@@]2(C)[C@]12CO2 [T-2HS, T-2-hemisuccinate] | 0.072 µg/mL | 0.01 µg/mL |  |  | 
C[C@@H]1Cc2c(Cl)cc(C(=O)N[C@@H](Cc3ccccc3)C(=O)O)c(O)c2C(=O)O1 [ochratoxin A] |  |  |  |  | 5-10 ppb
